Measurements: patent US20010006697A1, “Composition and method for producing low cholesterol eggs” (priority 1997, published 2001)
Entries after “also recorded” stand apart in the source; their conditions may differ. Marks after values point to notes of the source that are not given here.

Legend:
[1] = tested on: apolipoprotein B (apoB) mRNA; experiment: Northern blot of liver mRNA: apoB; format: in vivo, White Leghorn hens; conditions: normalized by 18S rRNA; day 35
From the text: Endocrinol. […] Endocrinol.

laying hens [2] = experiment: Liver cholesterol content; conditions: day 35
laying hens [3] = experiment: Yolk cholesterol contents of eggs from statin-treated laying hens; format: in vivo, White Leghorn hens; conditions: for less total yolk cholesterol than control eggs: week 2, per yolk
Procedure: Agric. […] Hens were treated as described in Example 1. […] The eggs were hard-cooked, and the yolks were separated, weighed, and crumbled. […] Agric. […] Egg homogenate filtrates were analyzed for cholesterol as described in Rudel, L. L. and Morris, M. D., J. Lipid Res. 14:364-366 (1973).

[4] = Liver weight of statin-treated laying hens; conditions: day 35
laying hens [5] = experiment: Egg production, egg weights and yolk weights of statin-treated laying hens; format: in vivo, White Leghorn hens
Procedure: Hens were treated as described in Example 1. Egg yolk was weighed as outlined in Example 2.

[6] = 0.03% of diet, Week 1, listed as atorvastatin
[7] = 0.06% of diet, Week 1, listed as atorvastatin
[8] = 0.06% of diet, week 5 (maximal reduction for simvastatin, lovastatin)
[9] = 0.03% of diet, Overall (weeks 1-5)
[10] = 0.06% of diet, Overall (weeks 1-5)

Liver Weight g ([4]; 0.03% of diet): 30.9 ± 1.2^b g
Liver Weight g/100 g BW ([4]; 0.03% of diet): 1.82 ± 0.05^a,b g/100 g BW
Liver Weight g ([4]; 0.06% of diet): 35.3 ± 2.3^a g
Liver Weight g/100 g BW ([4]; 0.06% of diet): 2.02 ± 0.09^a g/100 g BW
Egg weight, g (laying hens [5]; [9]): 61.3 ± 1.0^a,b (132) g
Hen-day egg production, % (laying hens [5]; [9]): 75.4 ± 4.1^b,c (132) %
Yolk weight, g (laying hens [5]; [9]): 16.6 ± 0.1^a (25) g
Egg weight, g (laying hens [5]; 0.03% of diet, Week 1): 63.0 ± 0.7^a g
Hen-day egg production, % (laying hens [5]; 0.03% of diet, Week 1): 82.9 ± 1.8^c,d %
Yolk weight, g (laying hens [5]; 0.03% of diet, Week 1): 17.2 ± 0.3^a g
Egg weight, g (laying hens [5]; 0.03% of diet, Week 2): 61.2 ± 0.8^c,d g
Hen-day egg production, % (laying hens [5]; 0.03% of diet, Week 2): 68.6 ± 1.0^c %
Yolk weight, g (laying hens [5]; 0.03% of diet, Week 2): 16.2 ± 0.3^a g
Egg weight, g (laying hens [5]; 0.03% of diet, Week 3): 60.5 ± 0.8^c g
Hen-day egg production, % (laying hens [5]; 0.03% of diet, Week 3): 80.0 ± 2.0^b %
Yolk weight, g (laying hens [5]; 0.03% of diet, Week 3): 16.7 ± 0.4^a g
Hen-day egg production, % (laying hens [5]; 0.03% of diet, Week 4): 77.1 ± 1.2^c %
Yolk weight, g (laying hens [5]; 0.03% of diet, Week 4): 16.2 ± 0.2^b g
Egg weight, g (laying hens [5]; 0.03% of diet, Week 5): 61.0 ± 0.7^b g
Hen-day egg production, % (laying hens [5]; 0.03% of diet, Week 5): 77.1 ± 1.2^c,d %
Yolk weight, g (laying hens [5]; 0.03% of diet, Week 5): 16.6 ± 0.3^a g
Egg weight, g (laying hens [5]; [10]): 58.9 ± 0.9^b (121) g
Hen-day egg production, % (laying hens [5]; [10]): 69.1 ± 3.5^c (121) %
Yolk weight, g (laying hens [5]; [10]): 14.3 ± 0.2^b (25) g
Egg weight, g (laying hens [5]; 0.06% of diet, Week 1): 63.6 ± 0.8^a g
Hen-day egg production, % (laying hens [5]; 0.06% of diet, Week 1): 82.9 ± 1.0^c,d %
Yolk weight, g (laying hens [5]; 0.06% of diet, Week 1): 16.1 ± 0.3^a g
Egg weight, g (laying hens [5]; 0.06% of diet, Week 2): 59.5 ± 1.0^d g
Hen-day egg production, % (laying hens [5]; 0.06% of diet, Week 2): 60.0 ± 1.8^d %
Yolk weight, g (laying hens [5]; 0.06% of diet, Week 2): 13.4 ± 0.3^b g
Egg weight, g (laying hens [5]; 0.06% of diet, Week 3): 56.9 ± 0.7^d g
Hen-day egg production, % (laying hens [5]; 0.06% of diet, Week 3): 68.6 ± 1.8^c %
Yolk weight, g (laying hens [5]; 0.06% of diet, Week 3): 13.9 ± 0.5^b g
Egg weight, g (laying hens [5]; 0.06% of diet, Week 4): 56.8 ± 0.7^e g
Hen-day egg production, % (laying hens [5]; 0.06% of diet, Week 4): 68.6 ± 1.8^d %
Yolk weight, g (laying hens [5]; 0.06% of diet, Week 4): 13.9 ± 0.3^c g
Egg weight, g (laying hens [5]; 0.06% of diet, Week 5): 57.8 ± 0.7^c g
Hen-day egg production, % (laying hens [5]; 0.06% of diet, Week 5): 74.3 ± 1.0^d %
Yolk weight, g (laying hens [5]; 0.06% of diet, Week 5): 14.2 ± 0.4^b g
Structure (SMILES): CC(C)c1c(C(=O)Nc2ccccc2)c(-c2ccccc2)c(-c2ccc(F)cc2)n1CC[C@@H](O)C[C@@H](O)CC(=O)O [Atorvastatin, (ΔR,δR)-2-(p-fluorophenyl)-β,δ-dihydroxy-5-isopropyl-3-phenyl-4-(phenylcarbamoyl)pyrrole-1-heptanoic acid]
hepatic apoB mRNA, linear contrasts (P≦0.05) [1]: atorvastatin>lovastatin; also recorded: atorvastatin>simvastatin
Liver Cholesterol mg/g liver (laying hens [2]; 0.03% of diet): 2.8 ± 0.05^c mg/g liver
Liver Cholesterol mg/liver (laying hens [2]; 0.03% of diet): 87.4 ± 2.2^a mg/liver
Liver Cholesterol mg/g liver (laying hens [2]; 0.06% of diet): 2.5 ± 0.07^d mg/g liver
Liver Cholesterol mg/liver (laying hens [2]; 0.06% of diet): 89.7 ± 5.2^a mg/liver
Yolk cholesterol content, mg cholesterol/g yolk (laying hens [3]; 0.03% of diet, Week 0): 11.4 ± 0.3^a mg cholesterol/g yolk
Yolk cholesterol content, mg cholesterol/yolk (laying hens [3]; 0.03% of diet, Week 0): 203.2 ± 7.7^a mg cholesterol/yolk
Yolk cholesterol content, mg cholesterol/g yolk (laying hens [3]; 0.03% of diet, Week 1): 9.4 ± 0.3^c mg cholesterol/g yolk
Yolk cholesterol content, mg cholesterol/yolk (laying hens [3]; 0.03% of diet, Week 1): 161.7 ± 5.5^b,c mg cholesterol/yolk
Yolk cholesterol content, mg cholesterol/g yolk (laying hens [3]; [6]): 9.4 mg cholesterol/g yolk
Yolk cholesterol content, mg cholesterol/yolk (laying hens [3]; [6]): 161.7 mg cholesterol/yolk
Yolk cholesterol content, mg cholesterol/g yolk (laying hens [3]; 0.03% of diet, Week 2): 8.7 ± 0.2^e mg cholesterol/g yolk
Yolk cholesterol content, mg cholesterol/g yolk (laying hens [3]; 0.03% of diet, Week 3): 8.6 ± 0.2^e mg cholesterol/g yolk
Yolk cholesterol content, mg cholesterol/yolk (laying hens [3]; 0.03% of diet, Week 3): 143.7 ± 3.3^c mg cholesterol/yolk
Yolk cholesterol content, mg cholesterol/g yolk (laying hens [3]; 0.03% of diet, Week 4): 8.3 ± 0.1^d mg cholesterol/g yolk
Yolk cholesterol content, mg cholesterol/yolk (laying hens [3]; 0.03% of diet, Week 4): 134.4 ± 2.2^c mg cholesterol/yolk
Yolk cholesterol content, mg cholesterol/g yolk (laying hens [3]; 0.03% of diet, Week 5): 8.2 ± 0.2^d mg cholesterol/g yolk
Yolk cholesterol content, mg cholesterol/yolk (laying hens [3]; 0.03% of diet, Week 5): 137.2 ± 3.8^d mg cholesterol/yolk
Yolk cholesterol content, mg cholesterol/yolk (laying hens [3]; 0.03% of diet, Week 5, listed as atorvastatin): 137.2 mg cholesterol/yolk
Yolk cholesterol content, mg cholesterol/g yolk (laying hens [3]; 0.06% of diet, Week 0): 11.3 ± 0.3^a mg cholesterol/g yolk
Yolk cholesterol content, mg cholesterol/yolk (laying hens [3]; 0.06% of diet, Week 0): 191.9 ± 7.3^a mg cholesterol/yolk
Yolk cholesterol content, mg cholesterol/g yolk (laying hens [3]; 0.06% of diet, Week 1): 9.3 ± 0.2^c mg cholesterol/g yolk
Yolk cholesterol content, mg cholesterol/yolk (laying hens [3]; 0.06% of diet, Week 1): 149.7 ± 3.8^c mg cholesterol/yolk
Yolk cholesterol content, mg cholesterol/g yolk (laying hens [3]; [7]): 9.3 mg cholesterol/g yolk
Yolk cholesterol content, mg cholesterol/yolk (laying hens [3]; [7]): 149.7 mg cholesterol/yolk
Yolk cholesterol content, mg cholesterol/g yolk (laying hens [3]; 0.06% of diet, Week 2): 7.8 ± 0.3^f mg cholesterol/g yolk
Yolk cholesterol content, mg cholesterol/yolk (laying hens [3]; 0.06% of diet, Week 2): 105.3 ± 4.3^d mg cholesterol/yolk
Yolk cholesterol content, mg cholesterol/yolk (laying hens [3]; 0.06% of diet, Week 2, listed as atorvastatin): 105.3 mg cholesterol/yolk
Yolk cholesterol content, mg cholesterol/g yolk (laying hens [3]; 0.06% of diet, Week 3): 7.5 ± 0.1^f mg cholesterol/g yolk
Yolk cholesterol content, mg cholesterol/yolk (laying hens [3]; 0.06% of diet, Week 3): 104.0 ± 3.7^d mg cholesterol/yolk
Yolk cholesterol content, mg cholesterol/g yolk (laying hens [3]; 0.06% of diet, Week 4): 7.5 ± 0.1^e mg cholesterol/g yolk
Yolk cholesterol content, mg cholesterol/yolk (laying hens [3]; 0.06% of diet, Week 4): 104.2 ± 2.3^d mg cholesterol/yolk
Yolk cholesterol content, mg cholesterol/g yolk (laying hens [3]; 0.06% of diet, Week 5): 7.6 ± 0.2^d mg cholesterol/g yolk
yolk cholesterol reduction from control on a per yolk (egg) basis (laying hens [3]; [8]): 46%
yolk cholesterol reduction from control per g of yolk (mg/g basis) (laying hens [3]; [8]): 35%
less total yolk cholesterol than control eggs (laying hens [3]; high dose (0.06%)): 45%
less total yolk cholesterol than control eggs (laying hens [3]; low dose (0.03%)): 27%
decrease in yolk weight (laying hens [5]; 0.06% of diet, Week 5): 19%
